Publication PMC7921015, “Spatiotemporal GLP-1 and GIP receptor signaling and trafficking/recycling dynamics induced by selected receptor mono- and dual-agonists” (Molecular Metabolism, 2021)

Tests used:
human GLP-1R [1] = biological target: T1, human GLP-1R (Homo sapiens, UniProt P43220); assay: cAMP assay (CAMYEL BRET sensor), GLP-1R; format: cell-based
T1 construct: host or cells: HEK293T
Description: (§1) The cells were seeded (700,000 cells/well) in 6-well plates and incubated to ∼70% confluency in complete media supplemented with 10% FBS and 1% Pen-Strep. […] Baseline measurements were taken after 5 min of incubation with coelenterazine-h or NanoGlo. The cells were then treated with a vehicle or the respective agonists. […] The temporal data of the vehicle-corrected agonist measurement was then normalized to the baseline reading of the same well. The first BRET reading following treatment with agonist/vehicle was the subsequent measurement after the zero time point. Positive or negative incremental areas under the curves (+iAUC/-iAUC) were calculated where noted. Each experiment was independently performed at least three times, with at least two technical replicates for each group.
(§2) CAMYEL, a cAMP sensor using YFP-Epac-RLuc was utilized to quantify cAMP accumulation with the temporal resolution. Then, 500 ng of CAMYEL DNA was co-transfected with 500 ng of DNA of untagged GLP-1R or GIPR per well in a 6-well plate. The experiments were performed in the absence of 3-isobutyl-1-methylxanthine (IBMX).
(§3) Data are represented as means ± S.E.M. Each experiment was independently conducted at least three times, each with at least two technical replicates. […] Dose responses were fitted using non-linear regression. pEC50 and EC50 values were calculated using GraphPad Prism 8.0 (GraphPad, San Diego, CA, USA). Statistical analyses were calculated in GraphPad 8.0 using one-way analysis of variance (ANOVA) and corrected with Tukey's or Bonferroni's multiple comparison test. Differences are considered significant with an adjusted p value < 0.05.

human GLP-1R [2] = biological target: T1, human GLP-1R; assay: Gαq (mini-G) recruitment BRET assay, GLP-1R; format: cell-based; details: HEK-293T, HEK293T, GLP-1R-GFP + NLuc-mini-G, +iAUC 60 min, mean ± SEM, at least 3 experiments
human GLP-1R [3] = biological target: T1, human GLP-1R; assay: GPCR internalization assay (loss of BRET with Venus-KRAS), GLP-1R; format: cell-based; details: HEK-293T, HEK293T, hGLP-1R-Rluc8 + Venus-KRAS, iAUC 60 min, mean ± SEM, at least 3 experiments, SEM, read-out: Receptor Internalization Emax (% GLP-1)
human GLP-1R [4] = biological target: T1, human GLP-1R; assay: Gαs (mini-G) recruitment BRET assay, GLP-1R; format: cell-based; details: HEK-293T, HEK293T, GLP-1R-GFP + NLuc-mini-G, +iAUC 60 min, mean ± SEM, at least 3 experiments
human GIPR [5] = biological target: T2, human GIPR (Homo sapiens, UniProt P48546); assay: cAMP assay (CAMYEL BRET sensor), GIPR; format: cell-based
T2 sequence (P48546 22-466): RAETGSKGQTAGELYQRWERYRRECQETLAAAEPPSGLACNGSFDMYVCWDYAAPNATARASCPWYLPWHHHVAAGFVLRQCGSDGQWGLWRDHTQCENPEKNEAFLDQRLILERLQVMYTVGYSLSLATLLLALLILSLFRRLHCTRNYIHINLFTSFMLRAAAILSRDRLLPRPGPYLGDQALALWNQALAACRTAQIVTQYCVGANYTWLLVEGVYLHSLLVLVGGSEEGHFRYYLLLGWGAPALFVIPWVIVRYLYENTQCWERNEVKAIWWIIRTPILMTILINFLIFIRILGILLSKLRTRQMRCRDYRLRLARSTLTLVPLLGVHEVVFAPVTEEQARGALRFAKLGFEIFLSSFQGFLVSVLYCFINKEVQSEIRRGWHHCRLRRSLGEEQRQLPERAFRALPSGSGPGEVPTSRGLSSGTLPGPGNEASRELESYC
Description: as §1, §2, §3

human GIPR [6] = biological target: T2, human GIPR; assay: Gαq (mini-G) recruitment BRET assay, GIPR; format: cell-based; details: HEK293T, GIPR-GFP + NLuc-mini-G, +iAUC 60 min
human GIPR [7] = biological target: T2, human GIPR; assay: GPCR internalization assay (loss of BRET with Venus-KRAS), GIPR; format: cell-based; details: HEK293T, hGIPR-Rluc8 + Venus-KRAS, iAUC 20 min, mean ± SEM, SEM
human GIPR [8] = biological target: T2, human GIPR; assay: β-arrestin 1 recruitment BRET assay, GIPR; format: cell-based
Description: as §1
(§4) Co-localization of β-arrestin1/2-RLUC8 with GLP-1R-GFP or GIPR-GFP was assessed.
as §3

human GIPR [9] = biological target: T2, human GIPR; assay: β-arrestin 2 recruitment BRET assay, GIPR; format: cell-based; details: HEK293T, GIPR-GFP + β-arrestin2-RLUC8, BRET, +iAUC 30 min
Description: as §1, §4, §3

human GIPR [10] = biological target: T2, human GIPR; assay: Gαs (mini-G) recruitment BRET assay, GIPR; format: cell-based; details: HEK293T, GIPR-GFP + NLuc-mini-G, +iAUC 60 min
human GLP-1R [11] = biological target: T1, human GLP-1R; assay: Endosomal trafficking assay (Venus-Rab5/7/11 co-localization), GLP-1R, HEK293T; format: cell-based; details: six experiments
Description: GPCR endosomal trafficking was assessed by measuring the ligand-stimulated gain in resonance energy transfer between Venus-Rab5/7/11 and hGLP-1R-RLUC8 or hGIPR-RLUC. Then, 100 ng of the respective Venus-Rab subtype DNA and 100 ng of hGLP-1R-RLUC8 or hGIPR-RLUC8 DNA were co-transfected into each well in a 6-well plate.

Human GLP-1R-GFP (human) [12] = biological target: Human GLP-1R-GFP (human) (UniProt P43220)
Human GLP-1R-GFP (human) [13] = biological target: Human GLP-1R-GFP (human) (UniProt P43220); remark: listed apart in the source

Chain of Human GLP-1R-GFP (human) (P43220 24-463): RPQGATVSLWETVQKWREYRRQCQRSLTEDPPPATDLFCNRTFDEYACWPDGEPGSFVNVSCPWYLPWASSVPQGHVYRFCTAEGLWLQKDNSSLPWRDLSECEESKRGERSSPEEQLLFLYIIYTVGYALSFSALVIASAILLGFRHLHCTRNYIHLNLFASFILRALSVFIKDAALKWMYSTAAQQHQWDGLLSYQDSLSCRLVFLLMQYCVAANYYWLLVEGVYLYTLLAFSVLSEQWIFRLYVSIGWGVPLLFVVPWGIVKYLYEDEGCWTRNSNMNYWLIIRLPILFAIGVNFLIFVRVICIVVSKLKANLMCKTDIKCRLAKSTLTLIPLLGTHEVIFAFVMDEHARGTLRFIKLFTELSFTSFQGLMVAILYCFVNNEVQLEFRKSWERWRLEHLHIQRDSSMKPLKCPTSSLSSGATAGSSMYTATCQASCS
T1 sequence (P43220 24-463): as above

CC[C@H](C)[C@H](NC(=O)[C@H](CC(C)C)NC(=O)[C@H](Cc1c[nH]c2ccccc12)NC(=O)[C@H](CCC(N)=O)NC(=O)[C@@H](NC(=O)[C@H](Cc1ccccc1)NC(=O)[C@H](C)NC(=O)[C@H](CCCCNC(=O)COCCOCCNC(=O)COCCOCCNC(=O)CC[C@H](NC(=O)CCCCCCCCCCCCCCCCCCC(=O)O)C(=O)O)NC(=O)[C@H](CCC(N)=O)NC(=O)[C@H](C)NC(=O)[C@@H](NC(=O)[C@H](CCCCN)NC(=O)[C@H](CC(=O)O)NC(=O)[C@H](CC(C)C)NC(=O)C(C)(C)NC(=O)[C@@H](NC(=O)[C@H](CO)NC(=O)[C@H](Cc1ccc(O)cc1)NC(=O)[C@H](CC(=O)O)NC(=O)[C@H](CO)NC(=O)[C@@H](NC(=O)[C@H](Cc1ccccc1)NC(=O)[C@@H](NC(=O)CNC(=O)[C@H](CCC(=O)O)NC(=O)C(C)(C)NC(=O)[C@@H](N)Cc1ccc(O)cc1)[C@@H](C)O)[C@@H](C)O)[C@@H](C)CC)[C@@H](C)CC)C(C)C)C(=O)N[C@@H](C)C(=O)NCC(=O)NCC(=O)N1CCC[C@H]1C(=O)N[C@@H](CO)C(=O)N[C@@H](CO)C(=O)NCC(=O)N[C@@H](C)C(=O)N1CCC[C@H]1C(=O)N1CCC[C@H]1C(=O)N1CCC[C@H]1C(=O)N[C@@H](CO)C(N)=O [tirzepatide, reference compound]
Emax (human GLP-1R [1]; HEK-293T, HEK293T transiently expressing untagged GLP-1R, CAMYEL sensor, no IBMX, +iAUC of 25 min response, 3-parameter fit, mean ± SEM, at least 3 experiments, SEM): 102 ± 4%
Emax (human GLP-1R [2]): 17%
Emax (human GLP-1R [3]): 24 ± 4%
Emax (human GLP-1R [4]): 31%
EC50 (human GIPR [5]; HEK293T, GIPR, CAMYEL sensor, no IBMX, +iAUC 25 min, read-out: cAMP EC50): 13.3 nM
EC50 (human GIPR [6]; mean ± SEM, SEM, read-out: Gαq Recruitment pEC50 (converted)): 132 nM
Gαq Recruitment Emax (% GIP) (human GIPR [6]; mean ± SEM, at least 3 experiments, listed as Dual Agonist (Tirzepatide), SEM): 71 ± 1 [-29]*^# % GIP
EC50 (human GIPR [6]; read-out: Gαq Recruitment EC50): 164 nM
Emax (human GIPR [6]; HEK-293T, mean ± SEM, at least 3 experiments, read-out: Gαq Recruitment Emax (% GIP)): 85%
EC50 (human GIPR [7]; read-out: Receptor Internalization pEC50 (converted)): 4.68 nM
Emax (human GIPR [7]; HEK-293T, at least 3 experiments, read-out: Receptor Internalization Emax (% GIP)): 18 ± 1%
EC50 (human GIPR [8]; HEK293T, GIPR-GFP + β-arrestin1-RLUC8, BRET, +iAUC 30 min; read-out: β-arr1 Recruitment EC50): > 1000 nM
EC50 (human GIPR [8]; HEK293T, GIPR-GFP + β-arrestin1-RLUC8, BRET, +iAUC 30 min; read-out: β-arr1 Recruitment pEC50 (converted)): > 1000 nM
EC50 (human GIPR [9]; mean ± SEM, SEM, read-out: β-arr2 Recruitment pEC50 (converted)): 39.8 nM
EC50 (human GIPR [10]; read-out: Gαs Recruitment EC50): 324 nM
Emax (human GIPR [10]; HEK-293T, mean ± SEM, at least 3 experiments, SEM, read-out: Gαs Recruitment Emax (% GIP)): 43 ± 3%
total GLP-1R Rab5 co-localization, of that elicited by GLP-1 (7–36 amide) (human GLP-1R [11]; 1 μM stimulation, hGLP-1R-Rluc8 + Venus-Rab5 (early endosomes), +iAUC): 13%
co-localization of GLP-1R with Rab7 positive (late) endosomes, of the response of GLP-1 (7–36 amide) (human GLP-1R [11]; hGLP-1R-Rluc8 + Venus-Rab7, +iAUC): 24%
GLP-1R co-localization with Rab11-positive recycling endosomes, decrease vs GLP-1 (7–36 amide) (human GLP-1R [11]; hGLP-1R-Rluc8 + Venus-Rab11, +iAUC): 54%

CCCCCCCCCCCCCCCC(=O)NCCCC[C@H](NC(=O)[C@H](CO)NC(=O)[C@@H]1CCCN1C(=O)[C@@H]1CCCN1C(=O)[C@@H]1CCCN1C(=O)[C@H](C)NC(=O)CNC(=O)[C@H](CO)NC(=O)[C@H](CO)NC(=O)[C@@H]1CCCN1C(=O)CNC(=O)CNC(=O)[C@H](C)NC(=O)[C@H](CC(C)C)NC(=O)[C@H](CC(C)C)NC(=O)[C@H](Cc1c[nH]c2ccccc12)NC(=O)[C@H](CC(N)=O)NC(=O)[C@@H](NC(=O)[C@H](Cc1ccccc1)NC(=O)[C@H](CCC(=O)O)NC(=O)C(C)(C)NC(=O)[C@H](C)NC(=O)[C@H](C)NC(=O)[C@H](CCC(N)=O)NC(=O)[C@H](CCCCN)NC(=O)[C@H](CC(=O)O)NC(=O)[C@H](CC(C)C)NC(=O)[C@H](Cc1ccc(O)cc1)NC(=O)[C@@H](NC(=O)[C@H](CO)NC(=O)[C@H](Cc1ccc(O)cc1)NC(=O)[C@H](CC(=O)O)NC(=O)[C@H](CO)NC(=O)[C@@H](NC(=O)[C@H](Cc1ccccc1)NC(=O)[C@@H](NC(=O)CNC(=O)[C@H](CCC(=O)O)NC(=O)C(C)(C)NC(=O)[C@@H](N)Cc1ccc(O)cc1)[C@@H](C)O)[C@@H](C)CC)[C@@H](C)CC)C(C)C)C(N)=O [fatty acyl-GIP]
EC50 (human GLP-1R [1]): 181 nM
EC50 (human GIPR [5]): 1.34 nM
Emax (human GIPR [5]; HEK-293T, HEK293T transiently expressing untagged GIPR, CAMYEL sensor, no IBMX, +iAUC of 25 min response, 3-parameter fit, mean ± SEM, at least 3 experiments, SEM, read-out: cAMP Emax (% GIP)): 97 ± 2%
EC50 (human GIPR [8]; read-out: β-arr1 Recruitment EC50; HEK293T, GIPR-GFP + β-arrestin1-RLUC8, BRET, +iAUC 30 min): > 1000 nM
EC50 (human GIPR [9]; read-out: β-arr2 Recruitment EC50): > 1000 nM

Tirzepatide (peptide)
GLP-1R internalization Emax, % of GLP-1 (7–36 amide) (loss of BRET between hGLP-1R-Rluc8 and Venus-KRAS, HEK293T) (Human GLP-1R-GFP (human) [12]): 13%
GLP-1R co-localization with Rab5 early endosomes (BRET of hGLP-1R-Rluc8 with Venus-Rab5, HEK293T), 1 μM, % of GLP-1 (7–36 amide) (Human GLP-1R-GFP (human) [13]): 13%
GLP-1R co-localization with Rab7 late endosomes (BRET of hGLP-1R-Rluc8 with Venus-Rab7, HEK293T), % of GLP-1 (7–36 amide) (Human GLP-1R-GFP (human) [13]): 24%
GLP-1R co-localization with Rab11 recycling endosomes (BRET of hGLP-1R-Rluc8 with Venus-Rab11, HEK293T), decrease against GLP-1 (7–36 amide) (Human GLP-1R-GFP (human) [13]): 54%
